Laboratory results from US11446287B2, “Compounds and methods for EP300 or CBP modulation and indications therefor” (Opna Immuno-Oncology SA, priority 2019, dated 2022).

These compounds were tested against T1, Recombinant human CBP containing the bromodomain (CBP-BD (1043-1159)) (Homo sapiens, UniProt Q92793) (assay: CBP Alphascreen binding assay). Settings: read-out: CREBBP (CBP) IC50.
T1 construct: Recombinant human CBP bromodomain (CBP-BD (1043-1159)); made in house; host or cells: E. coli BL21-CodonPlus (DE3), modified pET vector
T1 sequence (Q92793 1081-1197): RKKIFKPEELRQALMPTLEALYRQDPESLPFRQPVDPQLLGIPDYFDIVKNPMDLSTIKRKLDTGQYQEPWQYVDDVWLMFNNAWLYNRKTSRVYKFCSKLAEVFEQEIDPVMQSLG
Experimental: CBP Alphascreen Binding Assay
Binding of compounds of Formula (I) with CBP was assessed using Alphascreen™ binding assay. The inhibition of the interaction between the CBP bromodomain and its acetylated target protein was measured quantitatively using recombinant CBP, an acetylated Histone 3 peptide and AlphaScreen™ technology. In absence of inhibition of the CBP protein bound to AlphaScreen™ nickel chelate acceptor beads can interact with the acetylated Histone 3 peptide which was immobilized by the AlphaScreen™ Streptavidin coated beads. This interaction brings donor and acceptor beads in proximity. The close proximity allows the singlet oxygen produced by laser excitation of the donor beads to reach the acceptor beads and generate a luminescence signal. CBP inhibitors result in a decrease in the proximity signal through an inhibition of the CBP—acetylated peptide interaction.
Recombinant human CBP containing the bromodomain (CBP-BD (1043-1159)) was prepared and purified as described in protein expression and purification session. The peptide was human Histone H345-64K56Ac-Biotin (Anaspec CA, USA).
Protocol for CBP assay: All components are prepared in buffer composed of 50 mM HEPES pH 7.5, 50 mM NaCl, 0.01% BSA, 0.01% Triton X-100, 2 mM DTT. Test compounds and DMSO vehicle are diluted 1:50 in buffer and a 4 μL volume was transferred to an Alphaplate. 5.5 μL of CBP protein and 5.5 μL of peptide are added to wells containing 4 μL of various concentrations of test compounds of Formula (I) or DMSO vehicle in an Alphaplate (PerkinElmer GA, USA) and incubated for 1 hour at room temperature. 5 μL donor and acceptor bead mixture was then added with final concentrations of 7.5 μg/ml. 60 minutes after bead addition, Alpha signal was read on the Envision spectrometer (λEx 680 nm, λEm 520-620 nm). Final concentrations of bromodomain proteins and peptide are as shown below.
All data were normalized to the mean of 16 high and 16 low control wells on each plate. A four parameter curve fit of the following formula was then applied: Y=A+((B−A)/(1+((C/x)^D))) Where ‘A’ is the minimum, ‘B’ is the maximum, ‘C’ is the IC50 and ‘D’ is the Hill slope. Protein Expression and Purification
Recombinant human CBP bromodomain (CBP-BD (1043-1159)) was expressed in E. coli cells (in a modified pET vector) with an N-terminal six-His tag and purified using a combination of both IMAC (Ni-affinity) and size exclusion chromatography steps.
Recombinant CBP protein was expressed using the E. coli strain BL21-CodonPlus (DE3) (Agilent Technologies CA, USA). Cells were grown in Terrific Broth (TB) media to an OD600 of 0.92 at 37° C. at which temperature was reduced to 20° C., protein was induced with 1.0 mM isopropyl-β-D-thiogalactopyranoside (“IPTG”) for 20 hours and harvested by centrifugation at 8500×g for 20 minutes. Cells were re-suspended in 0.1M K2PO4 pH 8.0, 250 mM NaCl, 10% Glycerol, 0.75% NP-40, 25 mM Imidazole, with 0.2 mg/ml Lysozyme, 0.2 mM phenylmethanesulfonyl fluoride (“PMSF”), […] (“BME”), 25 μg/ml DNase I, incubated on ice for 30 minutes and lysed with a cell disruptor (MicroFluidics MA, USA). The lysate was clarified by centrifugation at 20,000×g for 1 hour. The protein was captured with Ni-NTA resin (Life Technologies, USA). Contaminating proteins were washed off with 40 mM HEPES pH 7.5, 500 mM NaCl, 5% Glycerol, 5 mM Imidazole, and 5 mM BME. Following 3× wash steps, protein was eluted using 400 mM Imidazole in 40 mM HEPES pH 7.5, 400 mM NaCl, and 5 mM BME. The protein was further purified using a size exclusion column (26/600 Superdex 200, GE Biosciences NJ, USA) in 40 mM HEPES pH 7.5, 250 mM NaCl, 5 mM BME. The protein was aliquoted and flash-frozen in liquid Nitrogen.
Compound Cc1noc(C)c1-c1cnc2c(Cc3cccc(Cl)c3)cn(-c3c(Cl)cc(C(=O)O)cc3Cl)c2c1 [P-0128, 3,5-dichloro-4-(3-(3-chlorobenzyl)-6-(3,5-dimethylisoxazol-4-yl)-1H-pyrrolo[3,2-b]pyridin-1-yl)benzoic acid] has an IC50 of 0.0001 to 1 µM. Cc1noc(C)c1-c1cnc2c(C(=O)c3cccc(OC(F)F)c3)cn(-c3c(Cl)cc(C(=O)O)cc3Cl)c2c1 [P-0129, 3,5-dichloro-4-(3-(3-(difluoromethoxy)benzoyl)-6-(3,5-dimethylisoxazol-4-yl)-1H-pyrrolo[3,2-b]pyridin-1-yl)benzoic acid] gave an IC50 of 0.0001 to 1 µM. With Cc1noc(C)c1-c1cnc2c(CC3CCC3)cn(-c3ccc([N+](=O)[O-])cc3F)c2c1 [P-0130, 4-(3-(cyclobutylmethyl)-1-(2-fluoro-4-nitrophenyl)-1H-pyrrolo[3,2-b]pyridin-6-yl)-3,5-dimethylisoxazole] the IC50 was 8 to 1000 µM. Work on Cc1noc(C)c1-c1cnc2c(Cc3ccccc3Cl)cn(-c3c(Cl)cc(C(=O)O)cc3Cl)c2c1 [P-0131, 3,5-dichloro-4-(3-(2-chlorobenzyl)-6-(3,5-dimethylisoxazol-4-yl)-1H-pyrrolo[3,2-b]pyridin-1-yl)benzoic acid] yielded an IC50 of 0.0001 to 1 µM. With Cc1noc(C)c1-c1cnc2c(Cc3cccc(OCc4ccccc4)c3)cn(-c3c(Cl)cc(C(=O)O)cc3Cl)c2c1 [P-0132, 4-(3-(3-(benzyloxy)benzyl)-6-(3,5-dimethylisoxazol-4-yl)-1H-pyrrolo[3,2-b]pyridin-1-yl)-3,5-dichlorobenzoic acid] the IC50 was 0.0001 to 1 µM. Cc1noc(C)c1-c1cnc2c(C(=O)c3cccc(OCc4ccccc4)c3)cn(-c3c(Cl)cc(C(=O)O)cc3Cl)c2c1 [P-0133, 4-(3-(3-(benzyloxy)benzoyl)-6-(3,5-dimethylisoxazol-4-yl)-1H-pyrrolo[3,2-b]pyridin-1-yl)-3,5-dichlorobenzoic acid] showed an IC50 of 0.0001 to 1 µM. Compound COc1ccc(-n2cc(CC3CCC3)c3ncc(-c4c(C)noc4C)cc32)cn1 [P-0134, 4-(3-(cyclobutylmethyl)-1-(6-methoxypyridin-3-yl)-1H-pyrrolo[3,2-b]pyridin-6-yl)-3,5-dimethylisoxazole] has an IC50 of 1 to 8 µM. In the case of COc1cc(C(=O)O)cc(OCc2ccccc2)c1-c1cn([C@@H](C)c2ccccn2)c2ncc(-c3c(C)noc3C)cc12 [P-0135, (S)-3-(benzyloxy)-4-(5-(3,5-dimethylisoxazol-4-yl)-1-(1-(pyridin-2-yl)ethyl)-1H-pyrrolo[2,3-b]pyridin-3-yl)-5-methoxybenzoic acid], the IC50 is reported as 0.0001 to 1 µM. Compound COc1c(C(=O)O)cccc1-c1cn(C(C)c2ccccc2)c2cc(-c3c(C)noc3C)cnc12 (stereo not drawn) [P-0136, 3-(6-(3,5-dimethylisoxazol-4-yl)-1-(1-phenylethyl)-1H-pyrrolo[3,2-b]pyridin-3-yl)-2-methoxybenzoic acid] has an IC50 of 0.0001 to 1 µM. Compound Cc1noc(C)c1-c1cnc2c(c1)c(-c1ccc(C(=O)O)cc1OC1COC1)cn2[C@@H](C)c1ccccn1 [P-0137, (S)-4-(5-(3,5-dimethylisoxazol-4-yl)-1-(1-(pyridin-2-yl)ethyl)-1H-pyrrolo[2,3-b]pyridin-3-yl)-3-(oxetan-3-yloxy)benzoic acid] has an IC50 of 0.0001 to 1 µM. Cc1noc(C)c1-c1cnc2c(c1)c(-c1ccc(C(=O)O)cc1OCC1CC1)cn2[C@@H](C)c1ccccn1 [P-0138, (S)-3-(cyclopropylmethoxy)-4-(5-(3,5-dimethylisoxazol-4-yl)-1-(1-(pyridin-2-yl)ethyl)-1H-pyrrolo[2,3-b]pyridin-3-yl)benzoic acid] was tested, and the IC50 was 0.0001 to 1 µM. Cc1noc(C)c1-c1cnc2c(c1)c(-c1ccc(C(=O)O)cc1OCc1ccccc1)cn2[C@@H](C)c1ccccn1 [P-0139, (S)-3-(benzyloxy)-4-(5-(3,5-dimethylisoxazol-4-yl)-1-(1-(pyridin-2-yl)ethyl)-1H-pyrrolo[2,3-b]pyridin-3-yl)benzoic acid] was tested, and the IC50 was 0.0001 to 1 µM. COc1ccc(C(=O)O)cc1-c1cn(C(C)c2ccccc2)c2cc(-c3c(C)noc3C)cnc12 (stereo not drawn) [P-0140, 3-(6-(3,5-dimethylisoxazol-4-yl)-1-(1-phenylethyl)-1H-pyrrolo[3,2-b]pyridin-3-yl)-4-methoxybenzoic acid] was tested, and the IC50 was 1 to 8 µM. In the case of Cc1noc(C)c1-c1cnc2c(-c3cc(C(=O)O)ccc3Cl)cn(C(C)c3ccccc3)c2c1 (stereo not drawn) [P-0141, 4-chloro-3-(6-(3,5-dimethylisoxazol-4-yl)-1-(1-phenylethyl)-1H-pyrrolo[3,2-b]pyridin-3-yl)benzoic acid], the IC50 is reported as 0.0001 to 1 µM. COc1cc(C(=O)O)ccc1-c1cn([C@@H](C)c2ccccn2)c2cc(-c3c(C)noc3C)cnc12 [P-0142, (S)-4-(6-(3,5-dimethylisoxazol-4-yl)-1-(1-(pyridin-2-yl)ethyl)-1H-pyrrolo[3,2-b]pyridin-3-yl)-3-methoxybenzoic acid] was tested, and the IC50 was 0.0001 to 1 µM. Work on Cc1noc(C)c1-c1cnc2c(CC3CCC3)cn(-c3ccc(O)nc3)c2c1 [P-0143, 5-(3-(cyclobutylmethyl)-6-(3,5-dimethylisoxazol-4-yl)-1H-pyrrolo[3,2-b]pyridin-1-yl)pyridin-2-ol] yielded an IC50 of 1 to 8 µM. In the case of COc1cc(C(=O)O)cc(O)c1-c1cn([C@@H](C)c2ccccn2)c2ncc(-c3c(C)noc3C)cc12 [P-0144, (S)-4-(5-(3,5-dimethylisoxazol-4-yl)-1-(1-(pyridin-2-yl)ethyl)-1H-pyrrolo[2,3-b]pyridin-3-yl)-3-hydroxy-5-methoxybenzoic acid], the IC50 is reported as 0.0001 to 1 µM. For Cc1noc(C)c1-c1cnc2c(c1)c(-c1ccnc(O)c1)cn2[C@@H](C)c1ccccn1 [P-0145, (S)-4-(5-(3,5-dimethylisoxazol-4-yl)-1-(1-(pyridin-2-yl)ethyl)-1H-pyrrolo[2,3-b]pyridin-3-yl)pyridin-2-ol], the IC50 was 8 to 1000 µM. Compound COc1cc(C(=O)O)cc(OC)c1-c1cn([C@@H](C)c2ccccn2)c2cc(-c3c(C)noc3C)cnc12 [P-0146, (S)-4-(6-(3,5-dimethylisoxazol-4-yl)-1-(1-(pyridin-2-yl)ethyl)-1H-pyrrolo[3,2-b]pyridin-3-yl)-3,5-dimethoxybenzoic acid] has an IC50 of 1 to 8 µM. CCOc1cc(C(=O)O)cc(OCC)c1-c1cn([C@@H](C)c2ccccn2)c2ncc(-c3c(C)noc3C)cc12 [P-0147, (S)-4-(5-(3,5-dimethylisoxazol-4-yl)-1-(1-(pyridin-2-yl)ethyl)-1H-pyrrolo[2,3-b]pyridin-3-yl)-3,5-diethoxybenzoic acid] showed an IC50 of 0.0001 to 1 µM. Compound CC[C@@H](c1ccccn1)n1cc(-c2cc(C(=O)O)ccc2Cl)c2ncc(-c3c(C)noc3C)cc21 [P-0148, (S)-4-chloro-3-(6-(3,5-dimethylisoxazol-4-yl)-1-(1-(pyridin-2-yl)propyl)-1H-pyrrolo[3,2-b]pyridin-3-yl)benzoic acid] has an IC50 of 0.0001 to 1 µM. Cc1noc(C)c1-c1cc2c(cn1)c(CC1CCC1)cn2-c1c(Cl)cc(C(=O)O)cc1Cl [P-0149, 3,5-dichloro-4-(3-(cyclobutylmethyl)-6-(3,5-dimethylisoxazol-4-yl)-1H-pyrrolo[3,2-c]pyridin-1-yl)benzoic acid] gave an IC50 of 0.0001 to 1 µM. Cc1noc(C)c1-c1cnc2c(-c3ccccc3)cn(-c3c(Cl)cc(C(=O)O)cc3Cl)c2c1 [P-0150, 3,5-dichloro-4-(6-(3,5-dimethylisoxazol-4-yl)-3-phenyl-1H-pyrrolo[3,2-b]pyridin-1-yl)benzoic acid] gave an IC50 of 0.0001 to 1 µM. Work on Cc1noc(C)c1-c1cnc2c(C3=CCOCC3)cn(-c3c(Cl)cc(C(=O)O)cc3Cl)c2c1 [P-0151, 3,5-dichloro-4-(3-(3,6-dihydro-2H-pyran-4-yl)-6-(3,5-dimethylisoxazol-4-yl)-1H-pyrrolo[3,2-b]pyridin-1-yl)benzoic acid] yielded an IC50 of 0.0001 to 1 µM.
